For 37 compounds, IC50 results are on record in US8853207B2 (Development Center for Biotechnology, priority 2012, dated 2014).

Structures can show the parent of a compound that is named as a salt.

Chain of FLT3 kinase (FLT3 kinase domain alone, Upstate) (P36888 610-943): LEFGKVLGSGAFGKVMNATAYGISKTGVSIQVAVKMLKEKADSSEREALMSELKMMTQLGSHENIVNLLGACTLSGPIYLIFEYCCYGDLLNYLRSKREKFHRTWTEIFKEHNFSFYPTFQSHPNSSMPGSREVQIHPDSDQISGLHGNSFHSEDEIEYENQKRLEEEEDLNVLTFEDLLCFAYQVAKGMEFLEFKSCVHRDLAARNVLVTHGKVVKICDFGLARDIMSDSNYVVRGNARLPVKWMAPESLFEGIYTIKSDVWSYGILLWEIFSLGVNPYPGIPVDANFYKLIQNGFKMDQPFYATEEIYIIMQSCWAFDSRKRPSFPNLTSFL

For the experiment, the target named is FLT3 kinase (FLT3 kinase domain alone, Upstate) (Homo sapiens (Human), UniProt P36888). Description: FLT3 kinase assay ([33P] incorporation into substrate). In kind it is biochemical. The following applies: 100 μM ATP, 30° C., 30 minutes; read-out: IC50 against FLT3. How it is done:
Inhibition of FLT3 kinase activity by compounds disclosed herein was quantified by measuring the amount of [^33P] incorporated into the substrate in the presence of a test compound. Briefly, a reaction mixture of 25 μL final volume containing 5 ng of FLT3 kinase (FLT3 kinase domain alone, Upstate), 5 μg of the substrate [(Poly (Glu-Tyr, 4:1), Sigma], kinase reaction buffer (20 mM MOPS pH 7.0, 1 mM EDTA, 5% glycerol, 0.01% Brij-35, 0.1% β-mercaptoethanol, 1 mg/mL BSA, 100 μM ATP, 0.1 μCi per well [^33P]-γ-ATP (2,500-3,000 Ci/mmol)), and a test compound (diluted from 9 μM to the desired final concentration by 4% DMSO) or DMSO (as the control) was incubated at 30° C. for 30 minutes. The reaction was stopped by adding 5 μL of 3% phosphoric acid solution. The resultant solution (30 μL) was later harvested by a UniFilter Plate GF/B (PerkinElmer) followed by adding 30 μL of the scintillation cocktail (MicroScint 20, PerkinElmer) to the well. The radioactivity retained on the filter membrane was measured by a luminescence counter (PerkinElmer). The results were analyzed by using linear regression software (GraphPad Prism 4; GraphPad Software Inc.).
As a reminder, the IC50 is the concentration that inhibits the measured activity by half. In the case of `Fc1cccc(Nc2n[nH]c3c2Cc2sccc2-3)c1` [Example-30, (4,7-Dihydro-1-thia-4,5-diaza-cyclopenta[a]pentalen-6-yl)-(3-fluoro-phenyl)-amine], the IC50 lay in the range of 100 to 499 nM.
`Nc1ccc(-c2cc3c(s2)Cc2c(-c4ccc(O)cc4)n[nH]c2-3)cn1` [Example-92, 4-[2-(6-Amino-pyridin-3-yl)-4,7-dihydro-1-thia-4,5-diaza-cyclopenta[a]pentalen-6-yl]-phenol]: the half-maximal inhibitory concentration (IC50) was under 100 nM.
Under `CN1CCN(c2ccc(-c3n[nH]c4c3Cc3sccc3-4)cc2)CC1` [Example-80, 6-[4-(4-Methyl-piperazin-1-yl)-phenyl]-4,7-dihydro-1-thia-4,5-diaza-cyclopenta[a]pentalene] stands under 100 nM; under `Clc1ccc(Nc2n[nH]c3c2Cc2sccc2-3)cc1` [Example-32, (4-Chloro-phenyl)-(4,7-dihydro-1-thia-4,5-diaza-cyclopenta[a]pentalen-6-yl)-amine], 100 to 499 nM.
As for `FC(F)(F)c1ccc(Nc2n[nH]c3c2Cc2sccc2-3)cc1` [Example-35, (4,7-Dihydro-1-thia-4,5-diaza-cyclopenta[a]pentalen-6-yl)-(4-trifluoromethyl-phenyl)-amine], the 50% inhibitory concentration (IC50) was in the range of 100 to 499 nM.
For the compound `c1cncc(-c2n[nH]c3c2Cc2sccc2-3)c1` [Example-16, 6-Pyridin-3-yl-4,7-dihydro-1-thia-4,5-diaza-cyclopenta[a]pentalene], the IC50 lay within 100 to 499 nM.
The same measure for “6-[4-(4-Methyl-piperazin-1-yl)-phenyl]-2-pyridin-3-yl-4,7-dihydro-1-thia-4,5-diaza-cyclopenta[a]pentalene hydrochloride [Example-90]”: under 100 nM; for “6-(2-Fluoro-phenyl)-4,7-dihydro-1-thia-4,5-diaza-cyclopenta[a]pentalene [Example-41]”: under 100 nM; for `Brc1ccc(-c2n[nH]c3c2Cc2sccc2-3)cn1` [Example-64, 6-(6-Bromo-pyridin-3-yl)-4,7-dihydro-1-thia-4,5-diaza-cyclopenta[a]pentalene]: 100 to 499 nM.
The same measure for `O=S(=O)(c1ccc(Nc2n[nH]c3c2Cc2sccc2-3)cc1)N1CCCCC1` [Example-55, (4,7-Dihydro-1-thia-4,5-diaza-cyclopenta[a]pentalen-6-yl)-[4-(piperidine-1-sulfonyl)-phenyl]-amine]: 100 to 499 nM.
Turning to `c1ccc(-c2n[nH]c3c2Cc2sccc2-3)cc1` [Example-6, 6-Phenyl-4,7-dihydro-1-thia-4,5-diaza-cyclopenta[a]pentalene], the IC50 lay within 100 to 499 nM.
The same measure for `COc1ccc(-c2n[nH]c3c2Cc2sc(-c4ccc(N5CCN(C)CC5)nc4)cc2-3)cc1` [Example-81, 6-(4-Methoxy-phenyl)-2-[6-(4-methyl-piperazin-1-yl)-pyridin-3-yl]-4,7-dihydro-1-thia-4,5-diaza-cyclopenta[a]pentalene]: under 100 nM; for `FC(F)(F)c1ccc(-c2ccc(-c3n[nH]c4c3Cc3sccc3-4)cc2)cc1` [Example-19, 6-(4′-Trifluoromethyl-biphenyl-4-yl)-4,7-dihydro-1-thia-4,5-diaza-cyclopenta[a]pentalene]: over 1000 nM; for `COc1ccc(-c2n[nH]c3c2Cc2sc(-c4ccoc4)cc2-3)cc1` [Example-77, 2-Furan-3-yl-6-(4-methoxy-phenyl)-4,7-dihydro-1-thia-4,5-diaza-cyclopenta[a]pentalene]: under 100 nM.
Regarding `Fc1ccc(-c2n[nH]c3c2Cc2sccc2-3)cc1` [Example-40, 6-(4-Fluoro-phenyl)-4,7-dihydro-1-thia-4,5-diaza-cyclopenta[a]pentalene], the IC50 lay in the range of 100 to 499 nM.
Turning to `CN1CCN(c2ccc(-c3n[nH]c4c3Cc3sc(-c5ccc(N)nc5)cc3-4)cc2)CC1` [Example-89, 5-{6-[4-(4-Methyl-piperazin-1-yl)-phenyl]-4,7-dihydro-1-thia-4,5-diaza-cyclopenta[a]pentalen-2-yl}-pyridin-2-ylamine hydrochloride], the IC50 is under 100 nM.
The same measure for `O=C1c2sccc2-c2[nH]nc(-c3cccc(Cl)c3)c21` [Example-50, 6-(3-Chloro-phenyl)-4H-1-thia-4,5-diaza-cyclopenta[a]pentalen-7-one]: 100 to 499 nM.
The same measure for `FC(F)(F)Oc1ccc(Nc2n[nH]c3c2Cc2sccc2-3)cc1` [Example-46, (4,7-Dihydro-1-thia-4,5-diaza-cyclopenta[a]pentalen-6-yl)-(4-trifluoromethoxy-phenyl)-amine]: 500 to 1000 nM.
Under `[O-][n+]1ccc(-c2n[nH]c3c2Cc2sccc2-3)cc1` [Example-61, 6-(1-Oxy-pyridin-4-yl)-4,7-dihydro-1-thia-4,5-diaza-cyclopenta[a]pentalene] stands 100 to 499 nM; under `Nc1ccc(-c2cc3c(s2)Cc2c(-c4ccc(N5CCOCC5)cc4)n[nH]c2-3)cn1` [Example-88, 5-[6-(4-Morpholin-4-yl-phenyl)-4,7-dihydro-1-thia-4,5-diaza-cyclopenta[a]pentalen-2-yl]-pyridin-2-Ylamine hydrochloride], under 100 nM.
Turning to `Nc1cccc(-c2n[nH]c3c2Cc2sccc2-3)c1` [Example-59, 3-(4,7-Dihydro-1-thia-4,5-diaza-cyclopenta[a]pentalen-6-yl)-phenylamine hydrochloride], the IC50 lay within 100 to 499 nM.
Under `Oc1ccc(-c2n[nH]c3c2Cc2sccc2-3)cc1` [Example-93, 4-(4,7-Dihydro-1-thia-4,5-diaza-cyclopenta[a]pentalen-6-yl)-phenol] stands under 100 nM.
On to `Clc1ccccc1Nc1n[nH]c2c1Cc1sccc1-2` [Example-31, (2-Chloro-phenyl)-(4,7-dihydro-1-thia-4,5-diaza-cyclopenta[a]pentalen-6-yl)-amine], for which the IC50 lay within 100 to 499 nM.
With `Clc1cc(Cl)cc(Nc2n[nH]c3c2Cc2sccc2-3)c1` [Example-49, (3,5-Dichloro-phenyl)-(4,7-dihydro-1-thia-4,5-diaza-cyclopenta[a]pentalen-6-yl)-amine], the IC50 was in the range of 100 to 499 nM.
With `COc1cc(-c2ccc(-c3n[nH]c4c3Cc3sccc3-4)cc2)ccc1O` [Example-9, 4′-(4,7-Dihydro-1-thia-4,5-diaza-cyclopenta[a]pentalen-6-yl)-3-methoxy-biphenyl-4-ol], the IC50 is under 100 nM.
The same measure for `COc1ccc(-c2n[nH]c3c2Cc2sccc2-3)c(OC)c1` [Example-4, 6-(2,4-Dimethoxy-phenyl)-4,7-dihydro-1-thia-4,5-diaza-cyclopenta[a]pentalene]: under 100 nM; for `COc1ccc(-c2n[nH]c3c2Cc2sc(-c4cncc(N)c4)cc2-3)cc1` [Example-91, 5-[6-(4-Methoxy-phenyl)-4,7-dihydro-1-thia-4,5-diaza-cyclopenta[a]pentalen-2-yl]-pyridin-3-ylamine hydrochloride]: under 100 nM.
With `COc1ccc(-c2n[nH]c3c2Cc2sc(-c4cccc(N)c4)cc2-3)cc1` [Example-86, 3-[6-(4-Methoxy-phenyl)-4,7-dihydro-1-thia-4,5-diaza-cyclopenta[a]pentalen-2-yl]-phenylamine], the IC50 was under 100 nM.
With `COc1ccc(-c2n[nH]c3c2C(=O)c2sc(-c4ccc(N)nc4)cc2-3)cc1` [Example-87, 2-(6-Amino-pyridin-3-yl)-6-(4-methoxy-phenyl)-4H-1-thia-4,5-diaza-cyclopenta[a]pentalen-7-one], the IC50 was under 100 nM.
Under `FC(F)(F)c1ccccc1Nc1n[nH]c2c1Cc1sccc1-2` [Example-42, (4,7-Dihydro-1-thia-4,5-diaza-cyclopenta[a]pentalen-6-yl)-(2-trifluoromethyl-phenyl)-amine] stands over 1000 nM; under `Brc1ccc(-c2n[nH]c3c2Cc2sc(Br)cc2-3)cc1` [Example-33, 2-Bromo-6-(4-bromo-phenyl)-4,7-dihydro-1-thia-4,5-diaza-cyclopenta[a]pentalene], under 100 nM.
Under `COc1ccc(Nc2n[nH]c3c2Cc2sccc2-3)cc1OC` [Example-24, (4,7-Dihydro-1-thia-4,5-diaza-cyclopenta[a]pentalen-6-yl)-(3,4-dimethoxy-phenyl)-amine] stands under 100 nM; under `c1cc2c(s1)Cc1c(-c3ccc(N4CCCC4)cc3)n[nH]c1-2` [Example-84, 6-(4-Pyrrolidin-1-yl-phenyl)-4,7-dihydro-1-thia-4,5-diaza-cyclopenta[a]pentalene], 100 to 499 nM; under `Nc1ccc(-c2n[nH]c3c2Cc2sccc2-3)cn1` [Example-66, 5-(4,7-Dihydro-1-thia-4,5-diaza-cyclopenta[a]pentalen-6-yl)-pyridin-2-ylamine hydrochloride], under 100 nM.
Consider “6-(3-Fluoro-phenyl)-4,7-dihydro-1-thia-4,5-diaza-cyclopenta[a]pentalene [Example-38]”, for which the IC50 is 100 to 499 nM.
As for `COc1ccc(-c2n[nH]c3c2Cc2sc(-c4cnc(N)nc4)cc2-3)cc1` [Example-79, 5-[6-(4-Methoxy-phenyl)-4,7-dihydro-1-thia-4,5-diaza-cyclopenta[a]pentalen-2-yl]-pyrimidin-2-ylamine], the IC50 is under 100 nM.
Under `COc1ccc(-c2n[nH]c3c2Cc2sc(-c4ccccc4)cc2-3)cc1` [Example-65, 6-(4-Methoxy-phenyl)-2-phenyl-4,7-dihydro-1-thia-4,5-diaza-cyclopenta[a]pentalene] stands under 100 nM.
